Test results published in DBAASP.
≈ marks a conversion by molar mass, not a printed value. Blank lines part the entries; values can stand above or below the molecule they belong to.

How the values were obtained:
Experiment in all cases: ≥ marks a high value that may be exact or a test limit, other limits are often not marked, values filed in µg/mL are converted to µM
[1] = test system: Candida glabrata 090902
[2] = test system: Enterococcus faecalis 981
[3] = test system: Enterococcus faecium 091299
[4] = test system: Staphylococcus aureus ATCC 25923
[5] = test system: Psychrobacter faecalis X29
[6] = test system: Nocardia asteroides
[7] = test system: Enterobacter cloacae CGMCC 1.57
[8] = test system: Staphylococcus epidermidis
[9] = test system: Staphylococcus aureus A170
[10] = test system: Pseudomonas aeruginosa ATCC 15692
[11] = test system: Proteus vulgaris KCTC 2433
[12] = test system: Listeria monocytogenes ATCC 19115
[13] = test system: Candida albicans KCTC 7270
[14] = test system: Pseudomonas aeruginosa 4007
[15] = test system: Aspergillus flavus KCTC 6905
[16] = test system: Staphylococcus aureus PBEL
[17] = test system: Escherichia coli CCARM 1238
[18] = test system: Salmonella typhimurium KCTC 1926
[19] = test system: Staphylococcus aureus CCARM 3089
[20] = test system: Salmonella typhimurium CCARM 8009
[21] = test system: Bacillus subtilis KCTC 1918
[22] = test system: Listeria monocytogenes KCTC 3710
[23] = test system: Salmonella typhimurium CCARM 8013
[24] = test system: Staphylococcus aureus CCARM 3114
[25] = test system: Aspergillus awamori KCTC 6915
[26] = test system: Bacillus subtilis KCTC 1998
[27] = test system: Pseudomonas aeruginosa 3547
[28] = test system: Aspergillus fumigatus KCTC 6145
[29] = test system: Staphylococcus epidermidis KCTC 3096
[30] = test system: Trichosporon beigelii KCTC 7707
[31] = test system: Escherichia coli CCARM 1229
[32] = test system: Pseudomonas aeruginosa KCTC 1637
[33] = test system: Staphylococcus epidermidis ATCC 12228
[34] = test system: Aspergillus parasiticus KCTC 6598
[35] = test system: Botrytis cinerea
[36] = test system: Staphylococcus aureus
[37] = test system: Pectobacterium carotovorum
[38] = test system: Vibrio alginolyticus
[39] = test system: Aerococcus viridans
[40] = test system: Salmonella typhimurium
[41] = test system: Enterobacter cloacae
[42] = test system: Bacillus megaterium
[43] = test system: Penicillium crustosum
[44] = test system: Fusarium oxysporum
[45] = test system: Vibrio anguillarum
[46] = test system: Vibrio harveyi
[47] = test system: Escherichia coli 363
[48] = test system: Klebsiella pneumoniae
[49] = test system: Vibrio penaeicida
[50] = test system: Micrococcus luteus
[51] = test system: Staphylococcus aureus ATCC 29213
[52] = test system: Candida albicans ATCC 37092
[53] = test system: Escherichia coli ATCC 25922

SMILES: CC[C@H](C)[C@H](NC(=O)[C@@H](NC(=O)[C@@H](NC(=O)[C@@H]1CCCN1C(=O)[C@H](CC(C)C)NC(=O)[C@@H](N)CC(C)C)[C@@H](C)CC)C(C)C)C(=O)N[C@@H](CC(N)=O)C(=O)N[C@@H](CC(C)C)C(=O)N[C@@H](CC(C)C)C(=O)N[C@@H](CCCCN)C(=O)N[C@@H](CO)C(=O)N[C@@H](CC(C)C)C(=O)N[C@@H](CC(C)C)C(=O)O [LLPIVINLLKSLL]
MIC [8]: 13.8 µM (≈ 20 µg/mL) | MIC [9]: 6.9 µM (≈ 10 µg/mL)

SMILES: CC[C@H](C)[C@H](NC(=O)[C@H](CCCCN)NC(=O)[C@H](CCCCN)NC(=O)[C@H](C)NC(=O)[C@H](CC(C)C)NC(=O)[C@H](CCCCN)NC(=O)[C@H](CCCCN)NC(=O)[C@H](CC(C)C)NC(=O)[C@H](CCCN=C(N)N)NC(=O)[C@H](CCCCN)NC(=O)[C@H](C)N)C(=O)N[C@@H](Cc1c[nH]c2ccccc12)C(=O)N[C@@H](CCCCN)C(=O)N[C@@H](Cc1c[nH]c2ccccc12)C(=O)N[C@@H](CCCCN)C(N)=O [AKRLKKLAKKIWKWK]
MIC [10]: 2 µM (≈ 3.85 µg/mL) | MIC [11]: 2.83 µM (≈ 5.44 µg/mL) | MIC [12]: 2 µM (≈ 3.85 µg/mL) | MIC [13]: 8 µM (≈ 15.4 µg/mL) | MIC [14]: 1 µM (≈ 1.92 µg/mL) | MIC [15]: 8 µM (≈ 15.4 µg/mL) | MIC [16]: 1 µM (≈ 1.92 µg/mL) | MIC [17]: 2 µM (≈ 3.85 µg/mL) | MIC [18]: 1.41 µM (≈ 2.72 µg/mL) | MIC [19]: 2 µM (≈ 3.85 µg/mL) | MIC [20]: 2 µM (≈ 3.85 µg/mL) | MIC [21]: 2 µM (≈ 3.85 µg/mL) | MIC [22]: 2 µM (≈ 3.85 µg/mL) | MIC [23]: 1 µM (≈ 1.92 µg/mL) | MIC [24]: 4 µM (≈ 7.7 µg/mL) | MIC [25]: 8 µM (≈ 15.4 µg/mL) | MIC [26]: 2 µM (≈ 3.85 µg/mL) | MIC [27]: 2.83 µM (≈ 5.44 µg/mL) | MIC [28]: 4 µM (≈ 7.7 µg/mL) | MIC [29]: 2.83 µM (≈ 5.44 µg/mL) | MIC [30]: 16 µM (≈ 30.8 µg/mL) | MIC [31]: 1.41 µM (≈ 2.72 µg/mL) | MIC [32]: 2 µM (≈ 3.85 µg/mL) | MIC [33]: 2.83 µM (≈ 5.44 µg/mL) | MIC [34]: 8 µM (≈ 15.4 µg/mL)

SMILES: CSCC[C@H](NC(=O)[C@H](CCCN=C(N)N)NC(=O)CNC(=O)[C@H](CCCCN)NC(=O)[C@H](Cc1ccc(O)cc1)NC(=O)[C@H](Cc1ccc(O)cc1)NC(=O)[C@@H](NC(=O)[C@H](CCC(N)=O)NC(=O)[C@H](Cc1ccccc1)NC(=O)[C@H](CCCN=C(N)N)NC(=O)[C@H](CCCCN)NC(=O)[C@H](CC(C)C)NC(=O)[C@H](Cc1ccc(O)cc1)NC(=O)[C@@H]1CCCN1C(=O)[C@@H](N)CCCCN)C(C)C)C(=O)N[C@@H](Cc1c[nH]c2ccccc12)C(=O)N[C@@H](CS)C(=O)O [KPYLKRFQVYYKGRMWC]
MIC [35]: 12.5 µM (≈ 28.3 µg/mL) | MIC [36]: 50 µM (≈ 113 µg/mL) | MIC [37]: ≥ 50 µM | MIC [38]: 25 µM (≈ 56.7 µg/mL) | MIC [39]: 6.25 µM (≈ 14.2 µg/mL) | MIC [40]: 25 µM (≈ 56.7 µg/mL) | MIC [41]: 25 µM (≈ 56.7 µg/mL) | MIC [42]: 3.12 µM (≈ 7.07 µg/mL) | MIC [43]: 25 µM (≈ 56.7 µg/mL) | MIC [44]: 12.5 µM (≈ 28.3 µg/mL) | MIC [45]: ≥ 100 µM | MIC [46]: ≥ 50 µM | MIC [47]: 25 µM (≈ 56.7 µg/mL) | MIC [48]: 25 µM (≈ 56.7 µg/mL) | MIC [49]: ≥ 100 µM | MIC [50]: 6.25 µM (≈ 14.2 µg/mL)

The next lines start with the values.

MIC [1]: 12.5 µM (≈ 32 µg/mL) | MIC [2]: 3.1 µM (≈ 7.94 µg/mL) | MIC [3]: ≥ 50 µM | MIC [4]: 3.1 µM (≈ 7.94 µg/mL) | MIC [5]: 25 µM (≈ 64.1 µg/mL) | MIC [6]: 3.1 µM (≈ 7.94 µg/mL) | MIC [7]: ≥ 100 µM
SMILES: CC[C@H](C)[C@H](NC(=O)[C@H](C)NC(=O)[C@@H](NC(=O)[C@@H]1CCCN1C(=O)[C@H](CC(C)C)NC(=O)[C@@H](NC(=O)[C@H](Cc1cnc[nH]1)NC(=O)[C@H](C)NC(=O)[C@H](C)NC(=O)[C@@H](NC(=O)[C@H](CCCCN)NC(=O)[C@H](CC(C)C)NC(=O)[C@@H](NC(=O)[C@H](C)NC(=O)[C@@H]1CCCN1C(=O)[C@H](CC(C)C)NC(=O)[C@@H](N)Cc1ccccc1)C(C)C)C(C)C)[C@@H](C)CC)[C@@H](C)O)C(=O)N[C@H]1CSSC[C@@H](C(=O)O)NC(=O)[C@H](CCCN=C(N)N)NC(=O)[C@H](CCCN=C(N)N)NC(=O)[C@H](CO)NC(=O)[C@H]([C@@H](C)CC)NC(=O)[C@H](C)NC1=O [FLPAVLKVAAHILPTAICAISRRC]

MIC [51]: > 500 µM | MIC [52]: ≥ 500 µM | MIC [53]: > 500 µM
SMILES: CC(C)C[C@H](NC(=O)[C@@H]1CCCN1C(=O)[C@H](CCCN=C(N)N)NC(=O)[C@@H]1CCCN1C(=O)[C@H](CCCN=C(N)N)NC(=O)[C@@H]1CCCN1)C(=O)N1CCC[C@H]1C(=O)N[C@@H](Cc1ccccc1)C(=O)N1CCC[C@H]1C(=O)N[C@@H](CCCN=C(N)N)C(=O)N1CCC[C@H]1C(=O)NCC(=O)O [PRPRPLPFPRPG]
